“Also recorded” adds a separate entry of the source. Where a name gives a salt, the structure may show the parent alone. Read-outs that look alike come from different tables or passages of the source.
Legend:
HCT116, DLD1 and SW480 = assay: Synergy score screen: chemotherapeutic agents in low serine, glycine, cysteine medium, cell counts
Protocol: Human cell lines HCT116, DLD1 and SW480 were seeded into 96-well plates either in complete medium containing serine, glycine and cysteine at 100 uM, with all other amino acids present, or low serine, glycine, cysteine (17-23 uM) medium with all other amino acids present. After 6 hours the stated chemotherapeutic agents were added (at doses of 0.01, 0.1 and 1 uM) to the wells and cells were incubated for a further 48 hours. After this time cells were formalin fixed and stained with a fluorescent nuclear stain for cell counting on an automated (Operetta) plate reader.

[1] = system: lymphoma (based on Eμ-Myc expression)
Source text: (§1) On normal chow, dietary amino acids are derived from whole proteins contained in the raw ingredients (wheat, wheatfeed, barley, de-hulled extracted toasted soya, maize and fish meal), with a small amount of purified lysine added as a supplement. […] “Diet 2-Control” contained all essential amino acids plus serine, glycine, glutamine, arginine, cystine, tyrosine, alanine, proline, glutamate and asparagine; “Diet 2-No Ser, No Gly/Diet 2-SG-free” was the same as Diet 2-Control, but without serine and glycine, with the other amino acid levels increased proportionally to achieve the same total amino acid content. “Diet 2” formulations were used for the Eμ-Myc-Tigar^−/− cohort (FIG. 19, panel f). All other cohorts received the previously published “Diet 1” formulations.
Mus Musculus cohorts were housed in a barriered facility proactive in environmental enrichment. The Eμ-Myc11, ApcMin/+, Lgr5creER; Apcf1/f1 and Pdx1cre; KrasG12D; Trp53f1/+ or Trp53R172H/+ mice/models have been previously described. Mixed male and female populations were used for each genotype. […] Eμ-Myc, and ApcMin/+ mice were at least 20 generations C57BL/6J. Eμ-Myc; Tigarf1/f1 mice were at least 50% C57BL/6J. Mice were put on the appropriate diet at the following times: Eμ-Myc pure bred 60 days post-natal, Eμ-Myc; Tigarf1/f1 55 days post-natal, ApcMin/+80 days post-natal, Lgr5creER; Apcf1/f1 7 days post-induction, Pdx1cre; KrasG12D; Trp53f1/+ or Trp53R172H/+60 days post-natal. […] For the metformin experiment, ApcMin/+ mice were given 200 mg/kg/day in their drinking water, starting 4 days after the diet change. All mice were taken to clinical end-point. […]
Samples were prepared in cold (−20° C.) lysis solvent (LS) consisting of methanol, acetonitrile, and H2O (50:30:20). […] Extracts were analysed on an LCMS platform consisting of an Accela 600 LC system and an Exactive mass spectrometer (Thermo Scientific). […] The raw data was analysed by LCquan (Thermo Scientific) and MZMine 2.10 for metabolite identification and quantification. […]

[2] = system: intestinal tumour organoids derived from a VillincreER; APCfl/fl mouse; assay: Intestinal tumour organoid growth (diameter) +/− serine and glycine, +/− drug; format: cell-based; conditions: two days
Protocol: ADF=Advanced DMEM F/12, with 2 mM glutamine, 1% of penicillin/streptomycin solution, 0.1% of AlbuMAX I BSA, 10 mM HEPES (all Gibco/Life Technologies). Adenomas were removed from the small intestine of mice and cut into smaller pieces and washed 5 times with ice cold PBS. Pieces were incubated in 5 mM EDTA for 10 min at 4° C. on a roller. Crypts were washed 2 times with ice cold PBS to remove EDTA and incubated in 10× trypsin for 30 min at 37° C. The crypt-enriched supernatant was collected and washed approximately 5 times with 5 ml ADF through mechanical pipetting. Crypts were pelleted via centrifugation at 1,200 rpm for 5 min. Crypts were re-suspended in growth factor reduced matrigel (BD Biosciences) and 20 μl was plated per well in a 12-well plate. Matrigel was allowed to solidify for 30 min in a 37° C. incubator before appropriate ADF was added supplemented with 0.05 μg/ml EGF and 0.1 μg/ml noggin (Total volume per well 1 ml). Crypts were split by harvesting in ice cold PBS and spun down at 600 rpm for 3 min. Supernatant was aspirated and the pellet dissociated with 100 μl ice cold PBS using mechanical pipetting. 5 ml of PBS was added to tube and spun own at 600 rpm for 3 min, repeated until supernatant was clear of debris. The final crypt pellet was re-suspended with growth factor reduced matrigel and plated as before. For serine/glycine starvation, amino acid free Advanced DMEM F/12 (Gibco/Life Technologies) was used to construct assay medium for organoids with or without serine and glycine, containing all other amino acids. […]
Organoids were seeded in the stated media with or without metformin/daunorubicin (both from Sigma) and allowed to grow for two days. Images for size quantification (performed using ImageJ software) were taken using a light microscope then organoids were fixed in 4% paraformaldehyde. ROS damage was assessed by immunostaining organoids with Anti-malondialdehyde (MDA) (Abcam, ab6463), with Alexa Fluor 594 secondary antibody (Thermo Fisher Scientific). […]

[3] = system: VillincreER; APCfl/fl organoids; assay: Organoid malondialdehyde (MDA) immunostaining (ROS damage); format: cell-based, mouse
Protocol: Organoids were seeded in the stated media with or without metformin/daunorubicin (both from Sigma) and allowed to grow for two days. Images for size quantification (performed using ImageJ software) were taken using a light microscope then organoids were fixed in 4% paraformaldehyde. ROS damage was assessed by immunostaining organoids with Anti-malondialdehyde (MDA) (Abcam, ab6463), with Alexa Fluor 594 secondary antibody (Thermo Fisher Scientific). Images were captured on an Olympus FV1000 inverted laser scanning confocal microscope and MDA staining was quantified using ImageJ software.

DLD1 and SW480 cells = assay: Metformin in vitro assay in APC-truncated colorectal cell lines, cell number; format: cell-based, Human; conditions: three days
Protocol: DLD1 and SW480 cells were seeded into 24-well plates and allowed to adhere overnight. Cells were washed with PBS and received either assay medium with or without serine and glycine, with or without metformin at the stated doses and allowed to grow for three days. Representative wells were photographed using a light microscope and counted using a Casy TT cell counter (FIG. 19, panel d). For the dose-response experiment (FIG. 23, panel e) cells were seeded in the same way, either in assay medium without serine and glycine, or in assay medium with low serine and glycine (10 uM), triplicate wells were counted after three days.

[4] = system: intestinal tumours (APCMin/+)
Source text: as §1
Mus Musculus cohorts were housed in a barriered facility proactive in environmental enrichment. The Eμ-Myc11, ApcMin/+, Lgr5creER; Apcf1/f1 and Pdx1cre; KrasG12D; Trp53f1/+ or Trp53R172H/+ mice/models have been previously described. Mixed male and female populations were used for each genotype. […] Eμ-Myc, and ApcMin/+ mice were at least 20 generations C57BL/6J. Eμ-Myc; Tigarf1/f1 mice were at least 50% C57BL/6J. Mice were put on the appropriate diet at the following times: Eμ-Myc pure bred 60 days post-natal, Eμ-Myc; Tigarf1/f1 55 days post-natal, ApcMin/+80 days post-natal, Lgr5creER; Apcf1/f1 7 days post-induction, Pdx1cre; KrasG12D; Trp53f1/+ or Trp53R172H/+60 days post-natal. […] For the metformin experiment, ApcMin/+ mice were given 200 mg/kg/day in their drinking water, starting 4 days after the diet change. All mice were taken to clinical end-point. Intestines from ApcMin/+ mice were fixed in methacarn (4:2:1 ratio of methanol, chloroform, acetic acid) to facilitate scoring of tumour number and area (width×length).
Samples were prepared in cold (−20° C.) lysis solvent (LS) consisting of methanol, acetonitrile, and H2O (50:30:20). […] Tissue samples were snap frozen and stored at −80° C. Prior to lysis, frozen samples were weighed then homogenized in 1 ml cold LS using a Precellys homogeniser (Bertin Technologies). Lysates were cleared of protein by centrifugation and lysate concentrations were normalized post-homogenisation with LS based on weight. Extracts were analysed on an LCMS platform consisting of an Accela 600 LC system and an Exactive mass spectrometer (Thermo Scientific). A SeQuant ZIC-pHILIC column (2.1 mm×150 mm, 5 μm) (Merck) was used to separate the metabolites with the mobile phase mixed by A=Ammonium carbonate 20 mM (adjusted to pH 9.4) and B=Acetonitrile. A gradient program starting at 20% of A and after 2 mins linearly increasing to 80% at 17 min was used followed by washing and re-equilibration steps. The total run time of the method was 25 min. The LC stream was desolvated and ionised in the HESI probe. The Exactive mass spectrometer was operated in full scan mode over a mass range of 75-1,000 m/z at a resolution of 50,000 with polarity switching. The raw data was analysed by LCquan (Thermo Scientific) and MZMine 2.10 for metabolite identification and quantification.
Mus Musculus cohorts were housed in a barrier facility proactive in environmental enrichment. […] Mixed male and female populations were used for each genotype.

[5] = system: Colorectal and breast cancer cell lines; assay: Rescue from cysteine starvation by homocysteine supplementation; format: cell-based; conditions: homocysteine 0.2 mM & 0.8 mM, three days
Protocol: FIG. 39. […] Colorectal and breast cancer cell lines were grown in 24-well plates. Basal medium was formulated (based on RPMI medium) lacking cysteine but containing all 19 other essential and non-essential amino acids. This basal medium was supplemented with the stated components; cysteine 0.4 mM (+Cys), homocysteine 0.2 mM & 0.8 mM (HC) and grown for three days. Data are average of three wells. Error bars=STDEV.
Cells (4×10^4-1×10^5) were seeded in complete RPMI or DMEM medium in 24-well plates and allowed to adhere overnight. Cells were then washed with PBS and received assay medium supplemented with the stated amino acids/metabolites/drugs. Assay medium was formulated based on RPMI-1640 medium but lacking amino acids, which were added individually depending on the assay. Assay medium was also supplemented with additional vitamin B6 (20 uM), a co-factor for cysteine synthesis. Cells were counted (using Casy TT cell counter, Innovatis, Roche Applied Science) at the stated time-points, using a “time=0” plate to calculate relative cell number from time of medium change.

[6] = average synergy score for three colorectal cells lines, drug at 0.01, 0.1 and 1 uM for 48 hours, low serine, glycine, cysteine (17-23 uM) vs complete medium (100 uM)

## CC(C)C[C@H](NC(=O)[C@H](CCc1ccccc1)NC(=O)CN1CCOCC1)C(=O)N[C@@H](Cc1ccccc1)C(=O)N[C@@H](CC(C)C)C(=O)[C@@]1(C)CO1 [Carfilzomib]
HCT116, DLD1 and SW480; [6]
  SYNERGY SCORE: 1.65

## CC(C)(C#N)c1cc(Cn2cncn2)cc(C(C)(C)C#N)c1 [Anastrozole]
HCT116, DLD1 and SW480
  SYNERGY SCORE: 1.43

## COc1cccc2c1C(=O)c1c(O)c3c(c(O)c1C2=O)C[C@@](O)(C(=O)CO)C[C@@H]3O[C@H]1C[C@H](N)[C@@H](O)[C@H](C)O1 [Epirubicin hydrochloride]
HCT116, DLD1 and SW480; [6]
  SYNERGY SCORE: 1.40

## Cc1cc(Nc2ncc(Cl)c(Nc3ccccc3S(=O)(=O)C(C)C)n2)c(OC(C)C)cc1C1CCNCC1 [Ceritinib]
HCT116, DLD1 and SW480; [6]
  SYNERGY SCORE: 2.56

## COc1cccc2c1C(=O)c1c(O)c3c(c(O)c1C2=O)C[C@@](O)(C(=O)CO)C[C@@H]3O[C@H]1C[C@H](N)[C@H](O)[C@H](C)O1 [Doxorubicin hydrochloride]
HCT116, DLD1 and SW480; [6]
  SYNERGY SCORE: 1.76

## CO[C@H]1C[C@@H]2CC[C@@H](C)[C@@](O)(O2)C(=O)C(=O)N2CCCC[C@H]2C(=O)O[C@H]([C@H](C)C[C@@H]2CC[C@@H](OC(=O)C(C)(CO)CO)[C@H](OC)C2)CC(=O)[C@H](C)/C=C(\C)[C@@H](O)[C@@H](OC)C(=O)[C@H](C)C[C@H](C)/C=C/C=C/C=C/1C [Temsirolimus]
HCT116, DLD1 and SW480; [6]
  SYNERGY SCORE: 3.90

## N.N.[Cl][Pt][Cl] [Cisplatin]
HCT116, DLD1 and SW480; [6]
  SYNERGY SCORE: 1.79

## C/C=C1\NC(=O)[C@H]2CSSCC/C=C/[C@H](CC(=O)N[C@H](C(C)C)C(=O)N2)OC(=O)[C@H](C(C)C)NC1=O [Romidepsin]
HCT116, DLD1 and SW480
  SYNERGY SCORE: 2.03

## [H]/N=C(/N)N/C(=N/[H])NCCc1ccccc1 [phenformin]
[1]; 100 mg/kg/day by gavage, mice on normal diet
  tolerability: tolerated
[1]; 100 mg/kg/day with serine and glycine deficient diet
  mice already recruited that did not succumb to toxicity: 7/14
[1]; 100 mg/kg/day, not statistically significant
  survival, diet with phenformin compared to serine and glycine free diet alone: trend for improved survival

## CO[C@H]1C[C@@H]2CC[C@@H](C)[C@@](O)(O2)C(=O)C(=O)N2CCCC[C@H]2C(=O)O[C@H]([C@H](C)C[C@@H]2CC[C@@H](OCCO)[C@H](OC)C2)CC(=O)[C@H](C)/C=C(\C)[C@@H](O)[C@@H](OC)C(=O)[C@H](C)C[C@H](C)/C=C/C=C/C=C/1C [Everolimus]
HCT116, DLD1 and SW480; [6]
  SYNERGY SCORE: 3.33

## CC[C@H](Nc1ncnc2[nH]cnc12)c1nc2cccc(F)c2c(=O)n1-c1ccccc1 [Idelalisib]
HCT116, DLD1 and SW480; [6]
  SYNERGY SCORE: 4.05

## COc1cc2nccc(Oc3ccc(NC(=O)C4(C(=O)Nc5ccc(F)cc5)CC4)cc3)c2cc1OC [Cabozantinib]
HCT116, DLD1 and SW480; [6]
  SYNERGY SCORE: 4.51

## Arsenic trioxide
HCT116, DLD1 and SW480
  SYNERGY SCORE: 2.52

## COc1cc(Nc2c(C#N)cnc3cc(OCCCN4CCN(C)CC4)c(OC)cc23)c(Cl)cc1Cl [Bosutinib]
HCT116, DLD1 and SW480; [6]
  SYNERGY SCORE: 1.95

## COc1cccc2c1C(=O)c1c(O)c3c(c(O)c1C2=O)C[C@@](O)(C(C)=O)C[C@@H]3O[C@H]1C[C@H](N)[C@H](O)[C@H](C)O1 [Daunorubicin]
[2]; with serine & glycine starvation
  tumour organoid growth: complements serine and glycine starvation; also recorded: decrease tumour organoid growth
[3]; with serine & glycine starvation, two days
  reactive oxygen species levels in tumour-organoids: increase reactive oxygen species levels

## CN(C)C(=N)N=C(N)N [Metformin]
[2]; low dose metformin
  organoid growth, interaction with serine and glycine starvation: antagonizes serine and glycine starvation; also recorded: did not have a synergistic effect
[2]; metformin 1000 uM
  organoid growth, interaction with serine starvation: synergise with serine starvation
[3]; high dose metformin
  reactive oxygen species (ROS) levels: increase with high dose metformin
[3]; low dose metformin
  reactive oxygen species (ROS) levels: decrease with low dose metformin
DLD1 and SW480 cells; metformin at 20 µM
  cell number: trend for increased cell number
DLD1 and SW480 cells; metformin at concentrations found in vivo
  synergistic effect with serine/glycine starvation: did not have a synergistic effect
[4]; 200 mg/kg/day in drinking water, LCMS
  metformin levels in serum and tissue: relatively low; also recorded: too low to potentiate the anti-cancer effect
[4]; metformin 200 mg/kg/day
  average tumour area: without a substantial change in average tumour area
  impact on systemic metabolism (serum glucose and lactate): minimal impact on systemic metabolism; also recorded: little impact on systemic metabolism
HCT116, DLD1 and SW480; [6]
  SYNERGY SCORE: 7.53

## Nc1nc(F)nc2c1ncn2[C@@H]1O[C@H](COP(=O)(O)O)[C@@H](O)[C@@H]1O [Fludarabine phosphate]
HCT116, DLD1 and SW480
  SYNERGY SCORE: 2.76

## CS(=O)(=O)c1ccc(C(=O)Nc2ccc(Cl)c(-c3ccccn3)c2)c(Cl)c1 [Vismodegib]
HCT116, DLD1 and SW480
  SYNERGY SCORE: 1.53

## CNC(=O)c1cc(Oc2ccc(NC(=O)Nc3ccc(Cl)c(C(F)(F)F)c3)cc2)ccn1 [Sorafenib]
HCT116, DLD1 and SW480; [6]
  SYNERGY SCORE: 2.26

## O=C(CCCCCCC(=O)Nc1ccccc1)NO [Vorinostat]
HCT116, DLD1 and SW480; [6]
  SYNERGY SCORE: 4.94

## N[C@@H](CCS)C(=O)O [homocysteine]
[5]
  rescue from cysteine starvation: rescued from cysteine starvation; also recorded: significant rescue from cysteine starvation

## C=C1C[C@@H]2[C@H](CC[C@]3(C)C(=O)CC[C@@H]23)[C@@]2(C)C=CC(=O)C=C12 [Exemestane]
HCT116, DLD1 and SW480; [6]
  SYNERGY SCORE: 2.14

## Cc1ccc(C(=O)Nc2ccc(CN3CCN(C)CC3)c(C(F)(F)F)c2)cc1C#Cc1cnc2cccnn12 [Ponatinib]
HCT116, DLD1 and SW480
  SYNERGY SCORE: 1.00

## Nc1cccc2c1CN(C1CCC(=O)NC1=O)C2=O (stereo not drawn) [Lenalidomide]
HCT116, DLD1 and SW480; [6]
  SYNERGY SCORE: 1.94

## O=C(c1cc(Cc2n[nH]c(=O)c3ccccc23)ccc1F)N1CCN(C(=O)C2CC2)CC1 [Olaparib]
HCT116, DLD1 and SW480; [6]
  SYNERGY SCORE: 1.46

## CNC(=O)c1cc(Oc2ccc(NC(=O)Nc3ccc(Cl)c(C(F)(F)F)c3)c(F)c2)ccn1 [Regorafenib]
HCT116, DLD1 and SW480; [6]
  SYNERGY SCORE: 2.29

## CN(C)C/C=C/C(=O)Nc1cc2c(Nc3ccc(F)c(Cl)c3)ncnc2cc1O[C@H]1CCOC1 [Afatinib]
HCT116, DLD1 and SW480; [6]
  SYNERGY SCORE: 1.18

Reference: patent publication US12478601B2, “Dietary product devoid of at least two non essential amino acids” (CANCER RESEARCH TECHNOLOGY LIMITED, priority 2016, dated 2025)
